# Experimental data published in paper PMC12419922, “Myristoylated Cathelicidin-DM Fused With ANG1-7: A Novel Self-Assembling Antimicrobial Peptide for the Treatment and Mechanism of Diabetic Infected Wounds” (Journal of Diabetes Research, 2025).
# Where no end group is shown, it is not given here. The star is where a group is joined. Myristoyl = CCCCCCCCCCCCCC(=O)*
# Legend:
# S. aureus biofilms = experiment: Antibiofilm activity, crystal violet staining and colony counting; type: cell-based, Staphylococcus aureus; conditions: different concentrations, 37°C, 24 h, crystal violet OD 595 nm and viable count
# Method: E. coli (ATCC 25922) and S. aureus (ATCC 25923) were cultured overnight in MHB medium at 37°C. The bacterial suspension was diluted to 100 times and added to a 12-well plate (500 μL/well). Each peptide with a different concentration was added to the corresponding well plate and incubated at 37°C for 24 h. After incubation, 100 μL of culture supernatant was discarded. The biofilm was fixed with 100 μL of 100% methanol for 15 min, then air-dried, then dyed with 0.1% crystal violet (CV) for 30 mins, and washed with distilled water three times. After adding 200 μL of 95% ethanol, the inhibition rate of the biofilm was calculated by measuring the OD value at 595 nm with Infinite M200 PRO, Switzerland. After ultrasonic treatment, the biofilm was fully dispersed into single cells, and the cell suspension was diluted to a suitable concentration for colony counting. All experiments were repeated three times.
# The formation of bacterial biofilms in the wounds of DFU patients is the main cause of bacterial resistance. By measuring the antibiofilm ability, the inhibitory and clearing effects of drugs on biofilms can be assessed. In the case of preventing biofilm formation, E. coli and S. aureus were cultured in LB nutrient medium with different concentrations of the novel AMP MYR-DM-ANG1-7 in 24-well plates at 37°C and incubate for 24 h. […]
# S. aureus (ATCC 25923) = experiment: MIC and growth inhibition, broth microdilution; type: cell-based, Staphylococcus aureus
# Method: The minimum inhibitory concentrations (MICs) of DM and MYR-DM-ANG1-7 were determined using the broth microdilution method. E. coli (ATCC 25922) and S. aureus (ATCC 25923) were cultured overnight in Mueller–Hinton broth (MHB) at 37°C. The cultures were diluted to 2 × 10^5 CFU/mL. The peptides were serially diluted in 10 mM phosphate-buffered solution (PBS) and added to a 96-well plate. The bacterial suspensions were mixed with an equal volume of peptide solution and incubated at 37°C for 18 h. Bacterial growth inhibition was determined by measuring the absorbance at 600 nm using a M200 multiwavelength microplate reader (Infinite M200 PRO, Switzerland). Subsequently, bacterial suspensions were treated with 1 × MIC, 2 × MIC, 3 × MIC, and 4 × MIC concentrations of the AMPs and sampled at 0, 3, 6, 12, 18, and 24 h. The absorbance was measured at 600 nm. The experiment was repeated three times.
# HUVECs [1] = experiment: Transwell migration assay; type: cell-based, human; conditions: HUVECs in HG + LPS; p < 0.01
# Method: HUVECs (1 × 10^4 cells/well) were incubated in the upper chamber of an 8-μm pore size (Corning, New York) and placed into a 24-well plate for 16 h at 37°C with 5% CO2. Cells adhering to the top surface of the Transwell membrane were carefully removed using a cotton swab. Cells that had migrated to the bottom of the chamber were fixed with 4% paraformaldehyde for 30 min and stained with 0.1% CV for 20 min. Finally, the chambers were placed on slides and imaged using an inverted fluorescence microscope (ThermoFish EVOS, United States). The number of cells in five random fields of each chamber was counted to determine migration ability.
# HUVECs [2] = experiment: NO secretion, Griess reaction; type: cell-based, human; conditions: HG + LPS (HG + LPS 0.5 times the original level), n = 3
# Method: NO levels were determined using the Griess reaction. Briefly, 100 μL of cell culture supernatant was mixed with an equal volume of Griess reagent and incubated at room temperature in the dark for 30 min. The absorbance of the reaction mixture was measured at 540 nm using a microplate reader. Sodium nitrite (NaNO2) was used as a standard to generate a calibration curve, and the NO concentration in the samples was calculated accordingly. All experiments were independently performed in triplicate to ensure data reliability and reproducibility.
# [3] = tested on: S. aureus (ATCC 25923) infected diabetic wound; experiment: Diabetic mouse S. aureus-infected full-thickness skin wound model; conditions: for wound healing rate: 200 μL subcutaneously for 3 days, n = 4
# Method: BALB/c male mice are from the Experimental Animal Center of Air Force Military Medical University. One group was fed a normal diet, and the other five groups were fed a high-fat diet for 4 weeks and then injected with 35 mg/kg streptozotocin (STZ, 35 mg/kg, Sigma) intraperitoneally for 3 days. […] After intraperitoneal injection of pentobarbital sodium (1%, […]), the dorsal hair of each animal was shaved off, and a circular full-thickness skin wound was created on the back using a 10-mm sterile mouse punch. S. aureus (ATCC 25923) was used to infect the wound site of mice, and a full-thickness wound infection model of mice was established. S. aureus was first resuscitated by operation in a biological ultra-clean table. A single colony was picked and incubated in LB medium at 37°C and 200 rpm. The concentration of the above S. aureus solution was adjusted to 1 × 10^8 CFU/mL to infect the wound of mice. Then, 24 h after S. aureus infection, three drugs, DM (20 μg/mL), ANG1-7 (20 μg/mL), and MYR-DM-ANG1-7 (20 μg/mL), were dissolved in PBS buffer, and 200 μL was injected subcutaneously for 3 days. After drug injection, the wound pus was diluted and coated with plate culture to observe the colony situation. The gross specimen imaging system (GF-7A, China) was used to record the wounds of mice on the same day and every other day after the formation of the wounds. The rubber ring with adhesive backing was used to fix the wound and prevent it from shrinking. ImageJ analysis software (NIH, Bethesda, MD, United States) was used to calculate and analyze the wound area. After 0, 3, 7, 10, and 14 days, the size of the infected wound was evaluated by rubber ring. The wound closure was measured as follows: the wound healing rate (%) = [W0 − Wn]/W0 × 100%, where W0 and Wn represent the wound area on the 0th and nth days, respectively (n = 4).
# On the 14th day, the skin tissue was fixed in 4% paraformaldehyde solution, dehydrated, embedded in paraffin, sliced, and stained with hematoxylin–eosin (HE) and Masson. Skin tissue sections on Day 7 were immunofluorescently stained using rabbit anti-mouse CD31 (Cell Signaling Technology) and α-SMA (Cell Signaling Technology), and all stained sections were observed under the slide scanner (Aperio AT 2; Leica Biosystems, Germany).
substance,measurement,setting,value
Myristoyl-SSRRKPCKGWLCKLKLRGGYTLIGSATNLNRPTYVRAGGGDRVYIHP (cysteines drawn unpaired) [MYR-DM-ANG1-7],formation of S. aureus biofilms,S. aureus biofilms,effectively inhibit
same,growth of S. aureus (inhibition curve),"S. aureus (ATCC 25923); 4 × MIC (128 μg/mL), OD 600 nm at 0-24 h, repeated three times",completely inhibit
same,Minimum inhibitory concentration,"S. aureus (ATCC 25923); S. aureus ATCC 25923, broth microdilution, MHB, 2 × 10^5 CFU/mL, 37°C, 18 h, absorbance 600 nm",16 µg/mL
same,number of cells passing through the chamber (Transwell),HUVECs [1],increased
same,"NO secretion in cell supernatant, increases to",HUVECs [2],1.63 times
same,wound healing rate,"[3]; 7th day, 20 μg/mL in PBS",72.77%
same,wound healing rate,"[3]; 10th day (diabetic control 40.26%), 20 μg/mL",85.22%
same,wound healing rate,"[3]; 14th day (diabetic control 52.34%), 20 μg/mL",95.66%
same,pathological changes in the liver and kidneys,"[3]; 14th day, H&E",no evidence of organ damage or pathological changes
same,"blood vessels, CD31 immunofluorescence","[3]; Day 7, compared with the diabetes infection group, p < 0.05",more blood vessels
same,epidermis of wound tissue (HE staining),"[3]; Day 14, compared with the diabetes infection group",became thinner
same,collagen deposition area (Masson staining),"[3]; Day 14, p < 0.0001",became larger
same,fluorescence intensity of α-SMA,"[3]; seventh day, vs the diabetes infection group, p < 0.01",significantly higher
same,number of bacteria in the wound,"[3]; wound pus plated on LB agar after 24 h of treatment, p < 0.0001",decreased
